Broadly, the IC50 is the concentration at which inhibition is half-maximal.

Counter-ions that a name gives are not always drawn. Like-named read-outs stand apart in the source and are kept apart here.

For one assay, the system named is UV4 cells. Briefly: cells. The format is cell-based. The following applies: Cricetulus griseus.
Another assay relates to SKOV3 cells. Briefly: cells. The format is cell-based. The following applies: Homo sapiens.
Where [1] appears, read: UV4, light or radiation study, 4 h, read-out: IC50, P (unirradiated prodrug).
Setting [2] is: SK-OV-3, light or radiation study, 4 h, read-out: IC50, P (unirradiated prodrug).
Setting [3] is: UV4, 4 h, read-out: IC50, E (authentic effector).
[4] abbreviates: SK-OV-3, 4 h, read-out: IC50, E (authentic effector).

On to `Cc1cccc2c(N)c3cccc(C(=O)NCC[N+](C)(C)Cc4ccc([N+](=O)[O-])cc4)c3nc12` [Compound 17, 2-[N-(9-amino-5-methylacridin-4-yl)carbonyl]aminoethyl-(dimethyl)-4-nitrobenzylammonium bromide], for which the IC50 is 0.78 µM in the assay on UV4 cells (setting [1]) and 4 ± 0.1 µM in the assay with SKOV3 cells (setting [2]).
With `Cc1cccc2c(N)c3cccc(C(=O)NCC[N+](C)(C)Cc4ccccc4[N+](=O)[O-])c3nc12` [Compound 18, 2-[N-(9-amino-5-methylacridin-4-yl)carbonyl]aminoethyl-(dimethyl)-2-nitrobenzyl]ammonium chloride], the IC50 in the assay on UV4 cells (setting [1]) is 3.1 µM.
Take `NCCNCCCNC(=O)c1cccc2cc3ccccc3nc12` [Compound 47, N-[3-[(2-Aminoethyl)amino]propyl]acridine-4-carboxamide trihydrochloride, reference compound]: the values for the IC50 in the assay with UV4 cells (setting [3]) and in the assay on SKOV3 cells (setting [4]) were 1.6 ± 0.4 µM and 1.6 ± 0.3 µM, respectively.
With `Cc1cccc2c(N)c3cccc(C(=O)NCC[N+](C)(C)Cc4ccc([N+](=O)[O-])n4C)c3nc12` [Compound 21, 2-(N-[9-amino-5-methylacridin-5-yl]carbonyl)aminoethyl-(dimethyl)[1-methyl-5-nitro-2-pyrrolyl]methylammonium chloride], the IC50 in the assay with UV4 cells (setting [1]) was 2 ± 0.4 µM.
As for `Cc1cccc2c(N)c3cccc(C(=O)NCC[N+](C)(C)Cc4nc(N5CCOCC5)sc4[N+](=O)[O-])c3nc12` [Compound 20, 2-[N-(9-amino-5-methylacridin-4-yl)carbonyl]aminoethyl-(dimethyl)-2-[4-morpholino-5-nitro-4-thiazolylmethyl]ammonium chloride], the IC50 in the assay with UV4 cells (setting [1]) is 1 ± 0.3 µM.
On to `CN(C)CCNc1ccc(NCCN(C)C)c2c1C(=O)c1c(O)ccc(O)c1C2=O` [Compound 46, 1,4-bis[(2-dimethylamino)-ethylamino]-5,8-dihydroxy-9,10-anthracenedione, reference compound], for which the figures for the IC50 in the assay with UV4 cells (setting [3]) and in the assay with SKOV3 cells (setting [4]) were 0.0021 µM and 0.074 ± 0.0004 µM, respectively.
Regarding `CN(C)CCNc1ccc(NCC[N+](C)(C)Cc2ccc([N+](=O)[O-])cc2)c2c1C(=O)c1c(O)ccc(O)c1C2=O` [Compound 27, 1-[(2-(4-nitrobenzyl)dimethylammonium)ethylamino]-4-[(2-dimethylamino)ethylamino]-5,8-dihydroxy-9,10-anthracenedione chloride], the values for the IC50 in the assay on UV4 cells (setting [1]) and with SKOV3 cells (setting [2]) were 0.27 ± 0.04 µM and 9.7 µM, respectively.
For the molecule `Cc1cccc2c(N)c3cccc(C(=O)NCCN(C)C)c3nc12` [Compound 38, (N,N-dimethylaminoethyl)-9-amino-5-methylacridine-4-carboxamide, reference compound], the IC50 in the assay with UV4 cells (setting [3]) was determined as 0.011 µM; in the assay with SKOV3 cells (setting [4]), 0.046 ± 0.002 µM.
As for `Cc1cccc2c(N)c3cccc(C(=O)NCC[N+](C)(C)Cc4c([N+](=O)[O-])ncn4C)c3nc12` [Compound 22, 2-(N-[9-amino-5-methylacridin-4-yl]carbonyl)aminoethyl-(dimethyl)-(1-methyl-4-nitro-5-imidazolyl)methylammonium chloride], in the assay on UV4 cells (setting [1]), the IC50 was found to be 1.9 ± 0.4 µM.
In the case of `C[N+](C)(CCNC(=O)c1cccc2cc3ccccc3nc12)Cc1ccc([N+](=O)[O-])cc1` [Compound 15, 2-[N-(acridin-4-yl)carbonyl]aminoethyl-(dimethyl)-4-nitrobenzylammonium bromide], the IC50 in the assay with UV4 cells (setting [1]) and in the assay on SKOV3 cells (setting [2]) was > 150 µM throughout.
`Cc1cccc2c(N)c3cccc(C(=O)NCC[N+](C)(C)Cc4ccc([N+](=O)[O-])s4)c3nc12` [Compound 19, 2-[N-(9-amino-5-methylacridin-4-yl)carbonyl]aminoethyl-(dimethyl)-5-nitro-2-thienylmethylammonium chloride]: the IC50 in the assay with UV4 cells (setting [1]) was 0.16 ± 0.03 µM.
Consider `CN(C)CCNC(=O)c1cccc2cc3ccccc3nc12` [Compound 37, N-[(dimethylamino)ethyl]acridine-4-carboxamide, reference compound], for which the results for the IC50 in the assay on UV4 cells (setting [3]) and in the assay on SKOV3 cells (setting [4]) were 0.49 ± 0.11 µM and 3.4 ± 0.8 µM, respectively.
On to `C[N+](C)(Cc1ccc([N+](=O)[O-])cc1)c1ccc2c(c1)N(S(C)(=O)=O)CC2CCl` (centres unmarked) [Compound 11, 3-(chloromethyl)-6-[N,N-dimethyl-N-(4-nitrobenzyl)-ammonio]-1-(methanesulfonyl)indoline chloride], for which the concentration for half-maximal inhibition (IC50) with UV4 cells (setting [1]) is 1140 ± 122 µM.
On to `C[N+](C)(CCNC(=O)c1cccc2cc3ccccc3nc12)Cc1ccc([N+](=O)[O-])s1` [Compound 16, 2-[N-(acridin-4-yl)carbonyl]aminoethyl-(dimethyl)-(5-nitro-2-thienyl)methylammonium chloride], for which the IC50 was determined as 40 ± 8 µM with UV4 cells (setting [1]) and 169 ± 58 µM in the assay with SKOV3 cells (setting [2]).
As for `CN(C)c1ccc2c(c1)N(S(C)(=O)=O)CC2CCl` (centres unmarked) [Compound 12, reference compound], in the assay on UV4 cells (setting [3]), the IC50 was 15 ± 6 µM.
